{"source": "patent US20250144047A1", "about": "“PHARMACEUTICAL COMPOSITION FOR PREVENTING, AMELIORATING, OR TREATING CANCER CONTAINING 8-PARADOL” (KDBIO CORP., priority 2022, published 2025)", "key": {"AGS cells [1]": {"system": "AGS cells", "assay": "ATP fluorescence assay in AGS cells", "type": "cell-based, human", "text": "The ATP degree of the sample-processed AGS cells were detected according to the manufacturer's instructions by using an ATP fluorescence assay kit (Biovision, Milpitas, CA, USA)."}, "[2]": {"system": "AGS xenograft tumor tissue", "assay": "IHC staining of tumor tissue", "type": "in vivo", "conditions": "tumor tissue of administered mice", "description": "The tumor tissue was fixed with 10% formalin and embedded with paraffin. Immunohistochemical (IHC) staining was performed using a mouse and rabbit-specific HRP/DAB (ABC) detection IHC kit (Abcam, Cambridge, MA, USA). The tissue was observed through an optical microscope, and the presence of a specific protein in the tumor tissue was determined to be the presence of a brown yellow color. The results were evaluated using ImageJ software."}, "AGS xenografts": {"system": "AGS xenografts", "assay": "Tumor size in AGS-xenograft mice", "type": "in vivo", "description": "(§1) Male nude mice (CAnN.Cg-Foxn1-nu, 4 weeks old, 20 g to 22 g) were purchased from OrientBio (Seongnam, Republic of Korea). The mice were placed in a chamber with conditions maintained at 23° C. and 50% humidity with a period of 12 hours of light and 12 hours of darkness. All animal experiments were conducted according to the National Institutes of Health's Laboratory Animal Care and Use Guidelines (NIH Publications No. 8023, revised 1996) and the Kyung Hee University's Animal Care and Use Guidelines ([…]-441, approval data: Sep. 28, 2021). […] The control group was administered with only 0.9% of general saline during this period. Body weights and tumor volumes of the mice were measured daily in all mice during the study period. All mice were euthanized after the end of the experiments. Blood, liver, spleen, kidney, and tumor tissues were extracted and weighed. In order to obtain the protein of tumor tissue, a portion of the tissue was processed with RIPA buffer containing a protease inhibitor cocktail. Then, the expression degree of a specific protein (determined by Western blot) was determined."}, "AGS cells [3]": {"system": "AGS cells", "assay": "LC3 immunofluorescence staining", "type": "cell-based, human", "description": "AGS cells (1×10^5 cells) were cultured on 6-well plates and processed with samples for 24 hours. For cell fixation and permeation, 4% paraformaldehyde and 0.1% Triton X-100 were used, respectively. After blocking with 2% BSA for 1 hour, the cells were incubated with primary antibodies on LC3 for 3 hours at 25° C. Then, the cells were incubated with fluorescein isothiocyanate (FITC)-conjugated secondary antibodies (Abcam, Cambridge, MA, USA) for 30 minutes. Finally, fluorescence was captured and analyzed using the Leica fluorescence microscope and ImageJ software."}, "[4]": {"parameters": "species or system mice", "conditions": "mouse, in vivo, po", "description": "as §1"}, "AGS cells [5]": {"system": "AGS cells", "assay": "Mito-tracker, ROS and Mito-SOX staining", "type": "cell-based, human", "description": "AGS cells (1×10^5 cells) were processed with the sample for 24 hours and then stained with a mitochondrial mito-tracker green kit (Thermo Fisher Scientific, Rockford, IL, USA). The stained cells were observed using the Leica DM IRB fluorescence microscope.\nAGS cells were cultured at a density of 1×10^5 cells for 24 hours. After the sample were processed with the cultured cells, intracellular oxidative stress and superoxide were confirmed by a cell ROS/superoxide detection assay kit (Abcam, Cambridge, MA, USA). The degree of fluorescence was evaluated using the Leica DM IRB fluorescence microscope."}, "[6]": {"conditions": "8-paradol-H 8 mg/kg oral 16 days"}, "[7]": {"conditions": "8-paradol in combination with CQ, compared to 8-paradol solely"}}, "data": [{"smiles": "CCCCCCCCCC(=O)CCc1ccc(O)c(OC)c1", "note": "[Purified Compound 3, 8-paradol]", "values": [{"measurement": "ATP loss induced by 8-paradol", "setting": "AGS cells [1]; 8-paradol with CQ (inhibiting mitophagy)", "result": "reduced"}, {"measurement": "ATP concentration in AGS cells", "setting": "AGS cells [1]; AGS cells", "result": "reduced"}, {"measurement": "density of LC3 and caspase-3 in tumor tissue", "setting": "[2]", "result": "increased"}, {"measurement": "size and weight of the tumor compared to Con-T", "setting": "AGS xenografts; [6]", "result": "significantly reduced"}, {"measurement": "size, weight, and volume of the tumor compared to the 5-FU group", "setting": "AGS xenografts; [6]", "result": "further reduced"}, {"measurement": "size of the tumor compared to Con-T", "setting": "AGS xenografts; 8-paradol-M 4 mg/kg oral 16 days", "result": "significantly reduced"}, {"measurement": "endogenous LC3 spots", "setting": "AGS cells [3]", "result": "increase"}, {"measurement": "liver and kidney indices versus Con-T group", "setting": "[4]", "result": "did not exhibit a significant difference"}, {"measurement": "body weight", "setting": "[4]; 8 mg/kg", "result": 19.5, "unit": "g"}, {"measurement": "Mito-SOX", "setting": "AGS cells [5]; [7]", "result": "partially reduced"}, {"measurement": "segmented mitochondria", "setting": "AGS cells [5]; [7]", "result": "reduced"}, {"measurement": "ROS and Mito-SOX production", "setting": "AGS cells [5]; AGS cells", "result": "overproduction"}, {"measurement": "mitochondrial morphology (Mito-tracker)", "setting": "AGS cells [5]; AGS cells, 24 hours", "result": "damaged and fragmented mitochondrial morphology"}]}]}
